In patent publication US7649020B2, “Modafinil polymorphic forms” (Cephalon France, priority 2002, dated 2010):
Read-outs that look alike come from different tables or passages of the source.

Assays:
[1] = Comparative bioavailability study in dogs, plasma levels of modafinil after a single oral dose; type: in vivo, dog
Protocol: A comparative bioavailability study was carried out in dogs to determine the pharmacokinetic profile of the new polymorphs form IV and form V of modafinil. The study was aimed to compare plasma levels of polymorphs form IV and form V versus the reference form I. Six male beagle dogs were randomly assigned to three groups according to a (3×3) Latin-square design. Each group was administered a single oral 30 mg/kg body weight dose of either form IV or form V or the reference form I and two successive administrations were separated by a one-week wash-out period according to the protocol design reported table 1.
Dogs were fasted overnight prior dosing and food was returned to them four hours after dosing. Blood samples were collected after each dose by venepuncture at predose (within one hour of dosing) and at 0.5, 1, 1.5, 2, 2.5, 3, 4, 5.5, 7, 9 and 24 hours post-dose. Blood samples were collected on heparinized test tubes and immediately centrifuged at 3,000 rpm. Then plasma was drawn off and stored frozen (−20° C.) until analyzed. Plasma concentrations of modafinil were determined by validated high-pressure liquid chromatography according to the method of Moachon G. et al. (J. Chromatog. B 1994; 654: 91). Pharmacokinetic parameters were determined using noncompartimental analysis.

[2] = Relative stability of polymorphic forms; type: physicochemical; details: 20° C. / room temperature
From the text: Modafinil form I was identified as the thermodynamic form (at room temperature). Form I is obtained via crystallization, preferably under atmospheric pressure, at room temperature.

[3] = Table 2, male beagle dogs, single oral 30 mg/kg, mean ± SEM, 30 mg/kg
[4] = Table 3, dogs, single oral 30 mg/kg, mean ± SEM, 30 mg/kg

With `NC(=O)C[S+]([O-])C(c1ccccc1)c1ccccc1` (racemic) [Form IV, 2-(benzhydrylsulfinyl) acetamide] the “C4 h (plasma level measured at 4 hours post-dose)” value [1, 3] was 21230 ± 1880 ng/mL, the “Cmax (maximum plasma level of modafinil)” value [1, 3] was 24980 ± 1120 ng/mL and the AUC0-24 h ([1]; Table 2, male beagle dogs, single oral 30 mg/kg, trapezoidal rule 0 to 24 hours post-dose, mean ± SEM, 30 mg/kg) was 200.69 ± 18.09 µg·h/mL. For the same compound, the “systemic exposure (Cmax and AUC0-24h) compared with form I” value ([1]; dogs, equivalent dose 30 mg/kg by oral route) was “substantially higher”.

Compound `NC(=O)C[S+]([O-])C(c1ccccc1)c1ccccc1` (racemic) [Form I, 2-(benzhydrylsulfinyl) acetamide, reference compound] has a concentration at 4 h ([1]; male, beagle, dog, plasma, po, 30 mg/kg, Table 2, male beagle dogs, single oral 30 mg/kg, mean ± SEM, read-out: C4 h (plasma level measured at 4 hours post-dose)) of 15400 ± 2560 ng/mL, a Cmax ([1]; male, beagle, dog, plasma, po, 30 mg/kg, Table 2, male beagle dogs, single oral 30 mg/kg, mean ± SEM, read-out: Cmax (maximum plasma level of modafinil)) of 18600 ± 2300 ng/mL and an AUC(0-t) ([1]; male, beagle, dog, plasma, po, 30 mg/kg, Table 2, male beagle dogs, single oral 30 mg/kg, trapezoidal rule 0 to 24 hours post-dose, mean ± SEM, read-out: AUC0-24 h) of 165 ± 23.7 µg·h/mL. It also gave a concentration at 1 h ([1]; male, beagle, dog, plasma, po, 30 mg/kg, Table 3, dogs, single oral 30 mg/kg, mean ± SEM, read-out: C1 h (plasma level at 1 hour post-dose)) of 8810 ± 2450 ng/mL, a concentration at 1.5 h ([1]; male, beagle, dog, plasma, po, 30 mg/kg, Table 3, dogs, single oral 30 mg/kg, mean ± SEM, read-out: C1.5 h (plasma level at 1.5 hours post-dose)) of 12700 ± 2390 ng/mL and a concentration at 2 h ([1]; male, beagle, dog, plasma, po, 30 mg/kg, Table 3, dogs, single oral 30 mg/kg, mean ± SEM, read-out: C2 h (plasma level at 2 hours post-dose)) of 14200 ± 2230 ng/mL. For the same compound, the concentration at 2.5 h ([1]; male, beagle, dog, plasma, po, 30 mg/kg, Table 3, dogs, single oral 30 mg/kg, mean ± SEM, read-out: C2.5 h (plasma level at 2.5 hours post-dose)) was 14200 ± 1950 ng/mL, the Cmax ([1]; male, beagle, dog, plasma, po, 30 mg/kg, Table 3, dogs, single oral 30 mg/kg, mean ± SEM, read-out: Cmax) was 18600 ± 2300 ng/mL and the Tmax ([1]; male, beagle, dog, plasma, po, 30 mg/kg, Table 3, dogs, single oral 30 mg/kg, mean, read-out: Tmax (time to reach peak plasma level of modafinil)) was 3 h. For the same compound, the MRT ([1]; male, beagle, dog, plasma, po, 30 mg/kg, Table 3, male beagle dogs, single oral 30 mg/kg, mean ± SEM, read-out: MRT (mean residence time)) was 6.91 ± 0.53 h and the “stability of the polymorphic form” value [2] was “most stable form”.

For `NC(=O)C[S+]([O-])C(c1ccccc1)c1ccccc1` (stereo not shown) [modafinil form II, 2-(benzhydrylsulfinyl) acetamide], the “stability of the polymorphic form” value [2] was “unstable”.

For `NC(=O)C[S+]([O-])C(c1ccccc1)c1ccccc1` (racemic) [Form V, 2-(benzhydrylsulfinyl) acetamide], the “C1 h (plasma level at 1 hour post-dose)” value [1, 4] was 12410 ± 2070 ng/mL, the “C1.5 h (plasma level at 1.5 hours post-dose)” value [1, 4] was 15.31 ± 2.06 µg/mL and the “C2 h (plasma level at 2 hours post-dose)” value [1, 4] was 16560 ± 2480 ng/mL. The “C2.5 h (plasma level at 2.5 hours post-dose)” value [1, 4] was 16.37 ± 2.38 µg/mL, the Cmax [1, 4] was 18720 ± 2090 ng/mL and the “Tmax (time to reach peak plasma level of modafinil)” value ([1]; Table 3, dogs, single oral 30 mg/kg, mean, 30 mg/kg) was 1.67 h. The “MRT (mean residence time)” value ([1]; Table 3, male beagle dogs, single oral 30 mg/kg, mean ± SEM, 30 mg/kg) was 6.11 ± 0.36 h, the “reduction in time needed to reach the concentration Cmax versus reference form I” value ([1]; dogs, equivalent oral dose 30 mg/kg) was ~50% and the “mean Tmax value relative to that of reference polymorph I” value ([1]; dogs, oral 30 mg/kg, data of Table 3) was “about 50%”.
